Laboratory results reported in PMC3706270 (Immunogenetics, 2011).

System: Mamu-A1*007:01
Assay type: binding, Macaca mulatta
Details: Table 4; for Relative binding (WT): binding relative to the WT epitope

Row | Sequence | Relative binding (WT) | Fold decrease (fold decrease of binding affinity versus WT epitope)
1 | NYIYDRHGDTL [Peptide 3408.0007] | <0.000003 | >350000
2 | SQGIRQILFL [Peptide 3408.0014] | 0.0035 | 
3 | YHSNVKEL | 1.0 | 
